Reference: PMC7957392, “Yeast translation elongation factor eEF3 promotes late stages of tRNA translocation” (The EMBO Journal, 2021)

Target: T1, eEF3 (C‐terminally TAP‐tagged, in native eEF3‐80S complex) (Saccharomyces cerevisiae, UniProt P16521)
T1 construct: gene YEF3; final 68 C-terminal residues including tag not modelled
T1 sequence (P16521 2-1044): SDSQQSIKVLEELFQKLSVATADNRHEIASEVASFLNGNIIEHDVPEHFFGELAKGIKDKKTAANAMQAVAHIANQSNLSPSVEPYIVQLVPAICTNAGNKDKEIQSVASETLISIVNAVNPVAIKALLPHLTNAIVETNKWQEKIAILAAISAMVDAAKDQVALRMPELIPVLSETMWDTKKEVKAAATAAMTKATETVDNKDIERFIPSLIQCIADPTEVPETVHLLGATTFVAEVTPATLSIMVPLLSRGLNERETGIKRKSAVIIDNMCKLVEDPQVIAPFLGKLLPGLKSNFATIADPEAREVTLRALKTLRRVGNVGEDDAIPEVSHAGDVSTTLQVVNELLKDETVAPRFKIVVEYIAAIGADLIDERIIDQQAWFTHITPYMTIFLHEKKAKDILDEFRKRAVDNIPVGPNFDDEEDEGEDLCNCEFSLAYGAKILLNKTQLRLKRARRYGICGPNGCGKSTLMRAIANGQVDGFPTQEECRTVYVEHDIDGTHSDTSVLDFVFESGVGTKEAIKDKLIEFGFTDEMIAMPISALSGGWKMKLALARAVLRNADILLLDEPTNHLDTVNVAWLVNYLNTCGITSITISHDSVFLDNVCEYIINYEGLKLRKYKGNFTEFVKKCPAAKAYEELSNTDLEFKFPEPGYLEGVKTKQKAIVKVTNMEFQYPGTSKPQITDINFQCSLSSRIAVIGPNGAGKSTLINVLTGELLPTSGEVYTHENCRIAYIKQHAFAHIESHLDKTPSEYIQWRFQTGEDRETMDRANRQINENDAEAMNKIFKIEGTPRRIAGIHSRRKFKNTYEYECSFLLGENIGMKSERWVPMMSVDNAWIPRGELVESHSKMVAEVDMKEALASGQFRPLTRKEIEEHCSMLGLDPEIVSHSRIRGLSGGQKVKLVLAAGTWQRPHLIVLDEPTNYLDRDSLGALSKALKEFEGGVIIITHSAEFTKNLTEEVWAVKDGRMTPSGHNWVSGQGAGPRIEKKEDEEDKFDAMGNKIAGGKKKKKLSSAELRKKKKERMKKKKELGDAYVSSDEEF
Experiment: cryo-EM structure of native eEF3-80S complex ([…] Å)
Conditions: ABC1 and ABC2 nucleotide-binding sites; complex eluted with 1 mM ADPNP, pH 7.4, 10 mM Mg(OAc)2; density assigned by authors as ATP (or ADPNP), identity not resolved

Nc1ncnc2c1ncn2[C@@H]1O[C@H](COP(=O)(O)OP(=O)(O)NP(=O)(O)O)[C@@H](O)[C@H]1O [ADPNP]
cryo-EM structure of native eEF3-80S complex (3.3 Å): electron density consistent with ATP (or ADPNP) was observed in the active sites of ABC1
